Measurements reported in PubChem BioAssay (NCI).
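Results reflect a 48-hour exposure of cells in 96-well plates to compound at five concentrations. GI50 marks 50% less growth. TGI is the concentration that stops growth completely.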

Experiments:
Test in all cases: NCI-60 cell line screen, 48 h
SK-MEL-28 melanoma = tested on: SK-MEL-28 melanoma
CAKI-1 renal = tested on: CAKI-1 renal
786-0 renal = tested on: 786-0 renal
DU-145 prostate = tested on: DU-145 prostate
MCF7 breast = tested on: MCF7 breast
OVCAR-5 ovarian = tested on: OVCAR-5 ovarian
BT-549 breast = tested on: BT-549 breast
EKVX NSCLC = tested on: EKVX NSCLC
RPMI-8226 leukemia = tested on: RPMI-8226 leukemia
HOP-62 NSCLC = tested on: HOP-62 NSCLC
SNB-19 CNS = tested on: SNB-19 CNS
TK-10 renal = tested on: TK-10 renal
MDA-MB-435 = tested on: MDA-MB-435
HL-60(TB) leukemia = tested on: HL-60(TB) leukemia
NCI/ADR-RES ovarian = tested on: NCI/ADR-RES ovarian
OVCAR-4 ovarian = tested on: OVCAR-4 ovarian
KM12 colon = tested on: KM12 colon
HOP-92 NSCLC = tested on: HOP-92 NSCLC
A549 NSCLC = tested on: A549 NSCLC
LOX IMVI melanoma = tested on: LOX IMVI melanoma
PC-3 prostate = tested on: PC-3 prostate
K-562 leukemia = tested on: K-562 leukemia
SF-539 CNS = tested on: SF-539 CNS
MDA-MB-468 breast = tested on: MDA-MB-468 breast
A498 renal = tested on: A498 renal
RXF 393 renal = tested on: RXF 393 renal
HCC-2998 colon = tested on: HCC-2998 colon
NCI-H460 lung = tested on: NCI-H460 lung

Compound: COc1ccc(C(=O)Nc2ccc(-c3ccc4c(c3)NC(=O)/C4=C\c3ccc[nH]3)cc2)cc1
- TGI (SK-MEL-28 melanoma): > 100 µM
- GI50 (CAKI-1 renal): > 100 µM
- TGI (CAKI-1 renal): > 100 µM
- GI50 (786-0 renal): 21.8 µM
- TGI (786-0 renal): 71.9 µM
- GI50 (DU-145 prostate): 8.3 µM
- TGI (DU-145 prostate): > 100 µM
- GI50 (MCF7 breast): 0.372 µM
- TGI (MCF7 breast): > 100 µM
- GI50 (OVCAR-5 ovarian): 30.8 µM
- TGI (OVCAR-5 ovarian): > 100 µM
- GI50 (BT-549 breast): 33.4 µM
- TGI (BT-549 breast): > 100 µM
- GI50 (EKVX NSCLC): 2.46 µM
- TGI (EKVX NSCLC): > 100 µM
- GI50 (RPMI-8226 leukemia): 38.4 µM
- TGI (RPMI-8226 leukemia): > 100 µM
- GI50 (HOP-62 NSCLC): 3.76 µM
- TGI (HOP-62 NSCLC): 13.5 µM
- GI50 (SNB-19 CNS): 30.9 µM
- TGI (SNB-19 CNS): > 100 µM
- GI50 (TK-10 renal): 19 µM
- TGI (TK-10 renal): > 100 µM
- GI50 (MDA-MB-435): > 100 µM
- TGI (MDA-MB-435): > 100 µM
- GI50 (HL-60(TB) leukemia): 32.4 µM
- TGI (HL-60(TB) leukemia): > 100 µM
- GI50 (NCI/ADR-RES ovarian): 3.84 µM
- TGI (NCI/ADR-RES ovarian): 16.3 µM
- GI50 (OVCAR-4 ovarian): 3.55 µM
- TGI (OVCAR-4 ovarian): 23.2 µM
- GI50 (KM12 colon): 53.7 µM
- TGI (KM12 colon): > 100 µM
- GI50 (HOP-92 NSCLC): 42.8 µM
- TGI (HOP-92 NSCLC): > 100 µM
- GI50 (A549 NSCLC): 15.2 µM
- TGI (A549 NSCLC): > 100 µM
- GI50 (LOX IMVI melanoma): 7.29 µM
- TGI (LOX IMVI melanoma): > 100 µM
- GI50 (PC-3 prostate): 27.7 µM
- TGI (PC-3 prostate): > 100 µM
- GI50 (K-562 leukemia): 25.2 µM
- TGI (K-562 leukemia): > 100 µM
- GI50 (SF-539 CNS): > 100 µM
- TGI (SF-539 CNS): > 100 µM
- GI50 (MDA-MB-468 breast): 0.243 µM
- TGI (MDA-MB-468 breast): 1.71 µM
- GI50 (A498 renal): > 100 µM
- TGI (A498 renal): > 100 µM
- GI50 (RXF 393 renal): 8.74 µM
- TGI (RXF 393 renal): 50.8 µM
- GI50 (HCC-2998 colon): 9.38 µM
- TGI (HCC-2998 colon): > 100 µM
- GI50 (NCI-H460 lung): 12.7 µM
- TGI (NCI-H460 lung): > 100 µM
